From patent US20210253557A1, “SUBSTITUTED TRIAZOLE DERIVATIVES AND USES THEREOF” (Bayer Pharma Aktiengesellschaft, priority 2017, published 2021) come the findings set out here.

The term IC50 denotes the midpoint of a concentration-inhibition curve.

Each structure is given as a SMILES string.

The target in assay [1] is T1, human V1a receptor (Homo sapiens, UniProt P37288).
T1 construct: expressed in transfected cells; host or cells: CHO K1 (ATCC), also stably transfected with a modified aequorin
T1 sequence (P37288 whole entry): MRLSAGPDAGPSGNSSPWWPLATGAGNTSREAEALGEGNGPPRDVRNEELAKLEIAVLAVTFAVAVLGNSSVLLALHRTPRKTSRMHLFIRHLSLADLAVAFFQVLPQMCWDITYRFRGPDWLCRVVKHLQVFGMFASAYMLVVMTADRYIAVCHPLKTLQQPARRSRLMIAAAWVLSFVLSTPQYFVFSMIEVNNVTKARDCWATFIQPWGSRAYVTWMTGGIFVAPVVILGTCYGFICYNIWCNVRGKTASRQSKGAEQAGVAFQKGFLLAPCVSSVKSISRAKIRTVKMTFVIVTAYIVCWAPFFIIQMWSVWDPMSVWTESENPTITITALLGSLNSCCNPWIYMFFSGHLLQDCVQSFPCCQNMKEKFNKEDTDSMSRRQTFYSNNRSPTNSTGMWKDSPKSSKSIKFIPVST
Put plainly: Cellular in vitro assay for determining vasopressin receptor activity (V1a, aequorin luminescence). The note with it: for IC50: CHO cell line transfected with the human V1a receptor, [Arg8]-vasopressin at EC50 concentration, read-out: IC50 hV1a; for ratio IC50 hV2/hV1a: selectivity ratio of IC50 hV2 to IC50 hV1a. The assay is classed as cell-based.

Assay [2] addresses T2, human V2 receptor (Homo sapiens, UniProt P30518).
T2 construct: expressed in transfected cells; host or cells: CHO K1 (ATCC) expressing firefly luciferase under a CRE-responsive promoter
Briefly: Cellular in vitro assay for determining vasopressin receptor activity (V2, CRE-luciferase). The assay is classed as cell-based. The note with it: CHO cell line transfected with the human V2 receptor; [Arg8]-vasopressin at EC50 concentration; read-out: IC50 hV2. Summed up: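 CHO K1 cells stably expressing the human V2 receptor and a CRE-driven firefly luciferase were plated the day before in DMEM/F12 with 2% FCS. Test compounds were added together with [Arg8]-vasopressin at its EC50 and incubated 3 h at 37 °C. Luciferase luminescence was read after Triton lysis and luciferin addition, giving IC50 values.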

T2 sequence (P30518 whole entry): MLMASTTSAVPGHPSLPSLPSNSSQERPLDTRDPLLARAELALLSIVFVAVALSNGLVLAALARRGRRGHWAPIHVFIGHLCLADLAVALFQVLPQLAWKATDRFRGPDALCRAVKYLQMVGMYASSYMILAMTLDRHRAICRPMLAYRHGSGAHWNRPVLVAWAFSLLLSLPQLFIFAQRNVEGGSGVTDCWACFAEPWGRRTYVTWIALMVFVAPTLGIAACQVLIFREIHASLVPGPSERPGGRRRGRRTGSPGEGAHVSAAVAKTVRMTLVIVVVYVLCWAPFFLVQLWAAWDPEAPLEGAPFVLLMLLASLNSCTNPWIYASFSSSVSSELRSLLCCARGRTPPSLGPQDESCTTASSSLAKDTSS

As for `O=C1CC[C@H](c2nc(Cn3nc(-c4ccc(Cl)cc4)n(C[C@H](O)C(F)(F)F)c3=O)nn2-c2ccccc2Cl)N1` [Example 101, 5-(4-Chlorophenyl)-2-({1-(2-chlorophenyl)-5-[(2R)-5-oxopyrrolidin-2-yl]-1H-1,2,4-triazol-3-yl}methyl)-4-[(2S)-3,3,3-trifluoro-2-hydroxypropyl]-2,4-dihydro-3H-1,2,4-triazol-3-one], in assay [1], the IC50 worked out at 0.77 nM and the “ratio IC50 hV2/hV1a” value came out at 4.9. In addition, the IC50 in assay [2] was determined as 3.8 nM.
In the case of `O=C1CC[C@@H](c2nc(Cn3nc(-c4ccc(Cl)cc4)n(C[C@H](O)C(F)(F)F)c3=O)nn2-c2ccccc2Cl)N1` [Example 102, 5-(4-Chlorophenyl)-2-({1-(2-chlorophenyl)-5-[(2S)-5-oxopyrrolidin-2-yl]-1H-1,2,4-triazol-3-yl}methyl)-4-[(2S)-3,3,3-trifluoro-2-hydroxypropyl]-2,4-dihydro-3H-1,2,4-triazol-3-one], in assay [1], the IC50 was determined as 0.25 nM and the “ratio IC50 hV2/hV1a” value turned out to be 4.8. In assay [2], the IC50 stood at 1.2 nM.
As to `O=C1CC[C@@H](c2nc(Cn3nc(-c4ccc(Cl)cc4)n(C[C@H](O)C(F)(F)F)c3=O)nn2-c2cnccc2Cl)N1` [Example 123, 5-(4-Chlorophenyl)-2-({1-(4-chloropyridin-3-yl)-5-[(2S)-5-oxopyrrolidin-2-yl]-1H-1,2,4-triazol-3-yl}methyl)-4-[(2S)-3,3,3-trifluoro-2-hydroxypropyl]-2,4-dihydro-3H-1,2,4-triazol-3-one], in assay [1], the IC50 is 1.1 nM and the “ratio IC50 hV2/hV1a” value came to 31.5. In addition, the IC50 in assay [2] came to 34.5 nM.
